Source: ChEMBL document CHEMBL4665624, “Synthesis of 5-(4-(1H-phenanthro[9,10-d]imidazol-2-yl)benzylidene)thiazolidine-2,4-dione as promising DNA and serum albumin-binding agents and evaluation of antitumor activity” (Eur J Med Chem, 2019)

Assays:
CCRF-CEM = experiment: Antitumor activity against human CCRF-CEM cells assessed as cell growth inhibition at 10 uM incubated for 48 hrs by sulforhodamine B assay; type: functional; conditions: read-out: GI
HL-60(TB) = experiment: Antitumor activity against human HL-60(TB) cells assessed as cell growth inhibition at 10 uM incubated for 48 hrs by sulforhodamine B assay; type: functional; conditions: read-out: GI
K562 = experiment: Antitumor activity against human K562 cells assessed as cell growth inhibition at 10 uM incubated for 48 hrs by sulforhodamine B assay; type: functional; conditions: read-out: GI
MOLT-4 = experiment: Antitumor activity against human MOLT4 cells assessed as cell growth inhibition at 10 uM incubated for 48 hrs by sulforhodamine B assay; type: functional; conditions: read-out: GI
RPMI-8226 = experiment: Antitumor activity against human RPMI8226 cells assessed as cell growth inhibition at 10 uM incubated for 48 hrs by sulforhodamine B assay; type: functional; conditions: read-out: GI
SR = experiment: Antitumor activity against human SR cells assessed as cell growth inhibition at 10 uM incubated for 48 hrs by sulforhodamine B assay; type: functional; conditions: read-out: GI
EKVX = experiment: Antitumor activity against human EKVX cells assessed as cell growth inhibition at 10 uM incubated for 48 hrs by sulforhodamine B assay; type: functional; conditions: read-out: GI
HOP-92 = experiment: Antitumor activity against human HOP92 cells assessed as cell growth inhibition at 10 uM incubated for 48 hrs by sulforhodamine B assay; type: functional; conditions: read-out: GI
NCI-H226 = experiment: Antitumor activity against human NCI-H226 assessed as cell growth inhibition at 10 uM incubated for 48 hrs by sulforhodamine B assay; type: functional; conditions: read-out: GI
NCI-H23 = experiment: Antitumor activity against human NCI-H23 cells assessed as cell growth inhibition at 10 uM incubated for 48 hrs by sulforhodamine B assay; type: functional; conditions: read-out: GI
NCI-H460 = experiment: Antitumor activity against human NCI-H460 assessed as cell growth inhibition at 10 uM incubated for 48 hrs by sulforhodamine B assay; type: functional; conditions: read-out: GI
NCI-H522 = experiment: Antitumor activity against human NCI-H522 cells assessed as cell growth inhibition at 10 uM incubated for 48 hrs by sulforhodamine B assay; type: functional; conditions: read-out: GI
COLO 205 = experiment: Antitumor activity against human COLO205 cells assessed as cell growth inhibition at 10 uM incubated for 48 hrs by sulforhodamine B assay; type: functional; conditions: read-out: GI
HCC 2998 = experiment: Antitumor activity against human HCC2998 cells assessed as cell growth inhibition at 10 uM incubated for 48 hrs by sulforhodamine B assay; type: functional; conditions: read-out: GI
HCT-116 = experiment: Antitumor activity against human HCT116 cells assessed as cell growth inhibition at 10 uM incubated for 48 hrs by sulforhodamine B assay; type: functional; conditions: read-out: GI
HCT-15 = experiment: Antitumor activity against human HCT15 cells assessed as cell growth inhibition at 10 uM incubated for 48 hrs by sulforhodamine B assay; type: functional; conditions: read-out: GI
HT-29 = experiment: Antitumor activity against human HT-29 cells assessed as cell growth inhibition at 10 uM incubated for 48 hrs by sulforhodamine B assay; type: functional; conditions: read-out: GI
KM12 = experiment: Antitumor activity against human KM12 cells assessed as cell growth inhibition at 10 uM incubated for 48 hrs by sulforhodamine B assay; type: functional; conditions: read-out: GI
SF-268 = experiment: Antitumor activity against human SF268 cells assessed as cell growth inhibition at 10 uM incubated for 48 hrs by sulforhodamine B assay; type: functional; conditions: read-out: GI
SF-295 = experiment: Antitumor activity against human SF295 cells assessed as cell growth inhibition at 10 uM incubated for 48 hrs by sulforhodamine B assay; type: functional; conditions: read-out: GI
SNB-19 = experiment: Antitumor activity against human SNB-19 cells assessed as cell growth inhibition at 10 uM incubated for 48 hrs by sulforhodamine B assay; type: functional; conditions: read-out: GI
SNB-75 = experiment: Antitumor activity against human SNB-75 cells assessed as cell growth inhibition at 10 uM incubated for 48 hrs by sulforhodamine B assay; type: functional; conditions: read-out: GI
U-251 = experiment: Antitumor activity against human U251 cells assessed as cell growth inhibition at 10 uM incubated for 48 hrs by sulforhodamine B assay; type: functional; conditions: read-out: GI
LOX IMVI = experiment: Antitumor activity against human LOX IMVI cells assessed as cell growth inhibition at 10 uM incubated for 48 hrs by sulforhodamine B assay; type: functional; conditions: read-out: GI
Malme-3M = experiment: Antitumor activity against human MALME-3M cells assessed as cell growth inhibition at 10 uM incubated for 48 hrs by sulforhodamine B assay; type: functional; conditions: read-out: GI
M14 = experiment: Antitumor activity against human M14 cells assessed as cell growth inhibition at 10 uM incubated for 48 hrs by sulforhodamine B assay; type: functional; conditions: read-out: GI
MDA-MB-435 = experiment: Antitumor activity against human MDA-MB-435 cells assessed as cell growth inhibition at 10 uM incubated for 48 hrs by sulforhodamine B assay; type: functional; conditions: read-out: GI
SK-MEL-28 = experiment: Antitumor activity against human SK-MEL-28 cells assessed as cell growth inhibition at 10 uM incubated for 48 hrs by sulforhodamine B assay; type: functional; conditions: read-out: GI
UACC-62 = experiment: Antitumor activity against human UACC-62 cells assessed as cell growth inhibition at 10 uM incubated for 48 hrs by sulforhodamine B assay; type: functional; conditions: read-out: GI
IGROV-1 = experiment: Antitumor activity against human IGROV1 cells assessed as cell growth inhibition at 10 uM incubated for 48 hrs by sulforhodamine B assay; type: functional; conditions: read-out: GI
OVCAR-3 = experiment: Antitumor activity against human OVCAR-3 cells assessed as cell growth inhibition at 10 uM incubated for 48 hrs by sulforhodamine B assay; type: functional; conditions: read-out: GI
OVCAR-4 = experiment: Antitumor activity against human OVCAR-4 cells assessed as cell growth inhibition at 10 uM incubated for 48 hrs by sulforhodamine B assay; type: functional; conditions: read-out: GI
OVCAR-8 = experiment: Antitumor activity against human OVCAR-8 cells assessed as cell growth inhibition at 10 uM incubated for 48 hrs by sulforhodamine B assay; type: functional; conditions: read-out: GI
NCI/ADR-RES = experiment: Antitumor activity against human NCI/ADR-RES cells assessed as cell growth inhibition at 10 uM incubated for 48 hrs by sulforhodamine B assay; type: functional; conditions: read-out: GI
SK-OV-3 = experiment: Antitumor activity against human SK-OV-3 cells assessed as cell growth inhibition at 10 uM incubated for 48 hrs by sulforhodamine B assay; type: functional; conditions: read-out: GI
786-0 = experiment: Antitumor activity against human 786-0 cells assessed as cell growth inhibition at 10 uM incubated for 48 hrs by sulforhodamine B assay; type: functional; conditions: read-out: GI
A498 = experiment: Antitumor activity against human A498 cells assessed as cell growth inhibition at 10 uM incubated for 48 hrs by sulforhodamine B assay; type: functional; conditions: read-out: GI
ACHN = experiment: Antitumor activity against human ACHN cells assessed as cell growth inhibition at 10 uM incubated for 48 hrs by sulforhodamine B assay; type: functional; conditions: read-out: GI
RXF 393 = experiment: Antitumor activity against human RXF 393 cells assessed as cell growth inhibition at 10 uM incubated for 48 hrs by sulforhodamine B assay; type: functional; conditions: read-out: GI
SN12C = experiment: Antitumor activity against human SN12C cells assessed as cell growth inhibition at 10 uM incubated for 48 hrs by sulforhodamine B assay; type: functional; conditions: read-out: GI
UO-31 = experiment: Antitumor activity against human UO-31 cells assessed as cell growth inhibition at 10 uM incubated for 48 hrs by sulforhodamine B assay; type: functional; conditions: read-out: GI
PC-3 = experiment: Antitumor activity against human PC-3 cells assessed as cell growth inhibition at 10 uM incubated for 48 hrs by sulforhodamine B assay; type: functional; conditions: read-out: GI
MCF7 = experiment: Antitumor activity against human MCF7 cells assessed as cell growth inhibition at 10 uM incubated for 48 hrs by sulforhodamine B assay; type: functional; conditions: read-out: GI
MDA-MB-231 = experiment: Antitumor activity against human MDA-MB-231/ATCC cells assessed as cell growth inhibition at 10 uM incubated for 48 hrs by sulforhodamine B assay; type: functional; conditions: read-out: GI
Hs-578T = experiment: Antitumor activity against human HS 578T cells assessed as cell growth inhibition at 10 uM incubated for 48 hrs by sulforhodamine B assay; type: functional; conditions: read-out: GI
BT-549 = experiment: Antitumor activity against human BT-549 cells assessed as cell growth inhibition at 10 uM incubated for 48 hrs by sulforhodamine B assay; type: functional; conditions: read-out: GI
MDA-MB-468 = experiment: Antitumor activity against human MDA-MB-468 cells assessed as cell growth inhibition at 10 uM incubated for 48 hrs by sulforhodamine B assay; type: functional; conditions: read-out: GI
SW-620 = experiment: Antitumor activity against human SW620 cells assessed as cell growth inhibition at 10 uM incubated for 48 hrs by sulforhodamine B assay; conditions: SW-620, 48 h, read-out: GI

CCN(CC)c1ccc(-c2nc3c4ccccc4c4ccccc4c3[nH]2)c(O)c1
inhibition of growth at 10 µM (CCRF-CEM): < 10%
inhibition of growth at 10 µM (HL-60(TB)): < 10%
inhibition of growth at 10 µM (K562): 20.5%
inhibition of growth at 10 µM (MOLT-4): < 10%
inhibition of growth at 10 µM (RPMI-8226): < 10%
inhibition of growth at 10 µM (SR): 15.8%
inhibition of growth at 10 µM (EKVX): 18.2%
inhibition of growth at 10 µM (HOP-92): 24.2%
inhibition of growth at 10 µM (NCI-H226): < 10%
inhibition of growth at 10 µM (NCI-H23): < 10%
inhibition of growth at 10 µM (NCI-H460): < 10%
inhibition of growth at 10 µM (NCI-H522): 10.4%
inhibition of growth at 10 µM (COLO 205): < 10%
inhibition of growth at 10 µM (HCC 2998): < 10%
inhibition of growth at 10 µM (HCT-116): < 10%
inhibition of growth at 10 µM (HCT-15): 13.8%
inhibition of growth at 10 µM (HT-29): < 10%
inhibition of growth at 10 µM (KM12): < 10%
inhibition of growth at 10 µM (SF-268): < 10%
inhibition of growth at 10 µM (SF-295): < 10%
inhibition of growth at 10 µM (SNB-19): < 10%
inhibition of growth at 10 µM (SNB-75): < 10%
inhibition of growth at 10 µM (U-251): < 10%
inhibition of growth at 10 µM (LOX IMVI): 11.7%
inhibition of growth at 10 µM (Malme-3M): < 10%
inhibition of growth at 10 µM (M14): < 10%
inhibition of growth at 10 µM (MDA-MB-435): < 10%
inhibition of growth at 10 µM (SK-MEL-28): < 10%
inhibition of growth at 10 µM (UACC-62): 20.1%
inhibition of growth at 10 µM (IGROV-1): < 10%
inhibition of growth at 10 µM (OVCAR-3): < 10%
inhibition of growth at 10 µM (OVCAR-4): < 10%
inhibition of growth at 10 µM (OVCAR-8): < 10%
inhibition of growth at 10 µM (NCI/ADR-RES): < 10%
inhibition of growth at 10 µM (SK-OV-3): 10.1%
inhibition of growth at 10 µM (786-0): < 10%
inhibition of growth at 10 µM (A498): < 10%
inhibition of growth at 10 µM (ACHN): < 10%
inhibition of growth at 10 µM (RXF 393): < 10%
inhibition of growth at 10 µM (SN12C): < 10%
inhibition of growth at 10 µM (UO-31): 24.4%
inhibition of growth at 10 µM (PC-3): < 10%
inhibition of growth at 10 µM (MCF7): 23.8%
inhibition of growth at 10 µM (MDA-MB-231): 19.4%
inhibition of growth at 10 µM (Hs-578T): < 10%
inhibition of growth at 10 µM (BT-549): < 10%
inhibition of growth at 10 µM (MDA-MB-468): < 10%
inhibition of growth at 10 µM (SW-620): < 10%
